Our source for the inhibition and IC50 values is patent US11149037B2, “Pyrazole MAGL inhibitors” (H. Lundbeck A/S, priority 2017, dated 2021).

One may read the IC50 as the concentration that gives 50% inhibition. Read a high IC50 as weaker potency.

What all share (format): biochemical
Assay [1] addresses FAAH (Homo sapiens (Human), UniProt O00519). The assay is described as follows: In vitro competitive activity-based protein profiling, human proteomes (prefrontal cortex or PC3 cell membrane fractions). Particulars: human proteome; for inhibition at 1 µM: read-out: FAAH % inh. 1 μM (human). In a few lines: (§1)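 Activity of MAGL and FAAH was quantified from fluorescent gel band intensities. Beforehand, inhibitors at several concentrations competed against subsequent probe labelling (FP-Rh, JW912 or HT-01) in species-matched proteomes, each step 30 min at 37° C.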

The target of assay [2] is MAGL (Homo sapiens (Human), UniProt Q99685). The description is as above. The settings on record: human proteome; for inhibition at 1 µM: read-out: MAGL % inh. 1 μM (human). In outline:
as §1

For assay [3], the target named is FAAH (Mus musculus (Mouse), UniProt O08914). The assay is described as follows: In vitro competitive activity-based protein profiling, mouse proteomes (brain membrane fraction or cell lysates). Particulars: mouse proteome, read-out: FAAH % inh. 1 μM (mouse). In a few lines:
as §1

The target of assay [4] is MAGL (Mus musculus (Mouse), UniProt O35678). The assay is described as above. Particulars: mouse proteome, read-out: MAGL % inh. 1 μM (mouse). In a few lines:
as §1

Chain of FAAH (Homo sapiens (Human), UniProt O00519) (O00519 whole entry): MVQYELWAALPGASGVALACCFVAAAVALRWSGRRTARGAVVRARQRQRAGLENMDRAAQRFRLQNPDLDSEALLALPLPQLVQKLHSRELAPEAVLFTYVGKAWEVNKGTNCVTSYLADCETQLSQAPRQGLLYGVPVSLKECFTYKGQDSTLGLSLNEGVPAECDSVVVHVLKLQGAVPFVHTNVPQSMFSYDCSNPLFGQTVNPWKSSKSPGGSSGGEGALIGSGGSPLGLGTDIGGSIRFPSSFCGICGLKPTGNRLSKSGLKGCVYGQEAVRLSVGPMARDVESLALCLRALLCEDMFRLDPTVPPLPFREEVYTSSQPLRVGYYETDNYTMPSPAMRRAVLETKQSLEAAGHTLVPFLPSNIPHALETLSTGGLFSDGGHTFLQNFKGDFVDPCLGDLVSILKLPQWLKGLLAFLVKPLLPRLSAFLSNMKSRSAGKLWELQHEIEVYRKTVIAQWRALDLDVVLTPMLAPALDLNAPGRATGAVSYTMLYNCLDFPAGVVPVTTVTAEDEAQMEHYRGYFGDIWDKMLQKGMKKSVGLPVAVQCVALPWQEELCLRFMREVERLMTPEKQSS
Chain of FAAH (Mus musculus (Mouse), UniProt O08914) (O08914 whole entry): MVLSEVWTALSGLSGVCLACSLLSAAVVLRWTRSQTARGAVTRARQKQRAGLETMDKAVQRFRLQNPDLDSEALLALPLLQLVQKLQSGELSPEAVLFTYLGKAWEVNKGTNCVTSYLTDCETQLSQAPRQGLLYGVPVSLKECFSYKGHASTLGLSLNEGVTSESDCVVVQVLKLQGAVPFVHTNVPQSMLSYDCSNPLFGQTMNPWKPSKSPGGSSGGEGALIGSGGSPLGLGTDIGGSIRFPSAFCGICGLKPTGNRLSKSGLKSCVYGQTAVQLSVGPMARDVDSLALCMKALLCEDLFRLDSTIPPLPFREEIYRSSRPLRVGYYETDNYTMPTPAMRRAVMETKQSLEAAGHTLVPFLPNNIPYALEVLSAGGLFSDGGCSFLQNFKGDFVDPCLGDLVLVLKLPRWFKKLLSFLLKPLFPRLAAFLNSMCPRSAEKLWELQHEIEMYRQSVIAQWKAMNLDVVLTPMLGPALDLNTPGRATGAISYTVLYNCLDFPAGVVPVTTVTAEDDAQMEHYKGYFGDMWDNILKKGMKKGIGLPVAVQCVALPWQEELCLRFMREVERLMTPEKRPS
Chain of MAGL (Mus musculus (Mouse), UniProt O35678) (O35678 whole entry): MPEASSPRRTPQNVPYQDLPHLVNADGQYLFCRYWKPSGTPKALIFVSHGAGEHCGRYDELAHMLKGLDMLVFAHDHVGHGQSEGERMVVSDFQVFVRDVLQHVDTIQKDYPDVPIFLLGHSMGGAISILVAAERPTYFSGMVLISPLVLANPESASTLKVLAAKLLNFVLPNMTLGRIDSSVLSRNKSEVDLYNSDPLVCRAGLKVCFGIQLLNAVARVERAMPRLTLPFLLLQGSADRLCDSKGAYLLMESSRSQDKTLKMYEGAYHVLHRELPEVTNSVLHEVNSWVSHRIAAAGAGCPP
Chain of MAGL (Homo sapiens (Human), UniProt Q99685) (Q99685 whole entry): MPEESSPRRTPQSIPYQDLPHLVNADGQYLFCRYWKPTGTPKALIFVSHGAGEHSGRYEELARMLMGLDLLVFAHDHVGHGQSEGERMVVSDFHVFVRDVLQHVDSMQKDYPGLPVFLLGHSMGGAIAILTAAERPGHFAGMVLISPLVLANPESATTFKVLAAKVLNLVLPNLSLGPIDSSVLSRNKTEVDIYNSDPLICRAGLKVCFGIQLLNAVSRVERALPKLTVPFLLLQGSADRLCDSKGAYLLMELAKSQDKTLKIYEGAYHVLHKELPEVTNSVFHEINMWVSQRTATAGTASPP

Regarding `CN(Cc1ccc(C(F)(F)F)nc1N1CCCC1)C1(C)CCN(C(=O)n2ccc(NS(C)(=O)=O)n2)CC1` [Example 91, N-(1-(4-Methyl-4-(methyl((2-(pyrrolidin-1-yl)-6-(trifluoromethyl)pyridin-3-yl)methyl)amino)piperidine-1-carbonyl)-1H-pyrazol-3-yl)methanesulfonamide], the inhibition at 1 µM on FAAH [1] is 25 to 50%; at MAGL [2] it was more than 75%; on FAAH [3] it was 50 to 75%; at MAGL [4], more than 75%.

For `CS(=O)(=O)Nc1ccn(C(=O)N2CCC(Oc3ccc(C(F)(F)F)cc3N3C4CCC3COC4)CC2)n1` [Example 92, N-(1-(4-(2-(3-Oxa-8-azabicyclo[3.2.1]octan-8-yl)-4-(trifluoromethyl)phenoxy)piperidine-1-carbonyl)-1H-pyrazol-3-yl)methanesulfonamide], the inhibition at 1 µM on FAAH [1] is 0 to 25%; on MAGL [2], more than 75%; at FAAH [3] it was 0 to 25%; at MAGL [4], more than 75%.

For the compound `CS(=O)(=O)Nc1ccn(C(=O)N2CCC(Oc3ccc(C(F)(F)F)nc3N3CCCC3)CC2)n1` [Example 95, N-(1-(4-((2-(Pyrrolidin-1-yl)-6-(trifluoromethyl)pyridin-3-yl)oxy)piperidine-1-carbonyl)-1H-pyrazol-3-yl)methanesulfonamide], the inhibition at 1 µM is 0 to 25% at FAAH [1], more than 75% on MAGL [2], 0 to 25% on FAAH [3] and more than 75% on MAGL [4].

Consider `CN(Cc1ccc(C(F)(F)F)cc1N1CCC(C(=O)O)C1)C1(C)CCN(C(=O)n2ccc(NS(C)(=O)=O)n2)CC1` (stereo not shown) [Example 97, 1-(2-((Methyl(4-methyl-1-(3-(methylsulfonamido)-1H-pyrazole-1-carbonyl)piperidin-4-yl)amino)methyl)-5-(trifluoromethyl)phenyl)pyrrolidine-3-carboxylic acid], for which the inhibition at 1 µM at FAAH [1] lay in the range of 0 to 25%; on MAGL [2], 25 to 50%; on FAAH [3] it was 0 to 25%; on MAGL [4], 25 to 50%.

In the case of `CS(=O)(=O)Nc1ccn(C(=O)N2CCC(Oc3ccc(C(F)(F)F)cc3NCC(=O)O)CC2)n1` [Example 99, (2-((1-(3-(Methylsulfonamido)-1H-pyrazole-1-carbonyl)piperidin-4-yl)oxy)-5-(trifluoromethyl)phenyl)glycine], the inhibition at 1 µM at FAAH [1] is 0 to 25%; on MAGL [2] it was more than 75%; on FAAH [3], 0 to 25%; at MAGL [4] it was more than 75%.

`CS(=O)(=O)Nc1ccn(C(=O)N2CCC(Oc3ccc(C(F)(F)F)cc3N3CCCC3=O)CC2)n1` [Example 100, N-(1-(4-(2-(2-Oxopyrrolidin-1-yl)-4-(trifluoromethyl)phenoxy)piperidine-1-carbonyl)-1H-pyrazol-3-yl)methanesulfonamide]: the inhibition at 1 µM is 0 to 25% at FAAH [1], 50 to 75% on MAGL [2], 0 to 25% on FAAH [3] and 50 to 75% at MAGL [4].

Consider `CS(=O)(=O)Nc1ccn(C(=O)N2CCC(Oc3ccc(C(F)(F)F)cc3C(=O)N3CCCC3)CC2)n1` [Example 101, N-(1-(4-(2-(Pyrrolidine-1-carbonyl)-4-(trifluoromethyl)phenoxy)piperidine-1-carbonyl)-1H-pyrazol-3-yl)methanesulfonamide], for which the inhibition at 1 µM on FAAH [1] was 0 to 25%; on MAGL [2] it was more than 75%; at FAAH [3], 0 to 25%; on MAGL [4], 50 to 75%.

Consider `CN(Cc1ccc(C(F)(F)F)cc1NCC(=O)O)C1(C)CCN(C(=O)n2ccc(NS(C)(=O)=O)n2)CC1` [Example 102, (2-((Methyl(4-methyl-1-(3-(methylsulfonamido)-1H-pyrazole-1-carbonyl)piperidin-4-yl)amino)methyl)-5-(trifluoromethyl)phenyl)glycine], for which the inhibition at 1 µM at FAAH [1] fell in the range of 0 to 25%; at MAGL [2], 50 to 75%; at FAAH [3], 0 to 25%; on MAGL [4] it was 0 to 25%.

Consider `CC(=O)Nc1ccn(C(=O)N2CCC3(CCCN3Cc3ccc(Cl)cc3OCCCC(=O)O)CC2)n1` [Example 105, 4-(2-((8-(3-Acetamido-1H-pyrazole-1-carbonyl)-1,8-diazaspiro[4.5]decan-1-yl)methyl)-5-chlorophenoxy)butanoic acid], for which the inhibition at 1 µM is 0 to 25% on FAAH [1], more than 75% on MAGL [2], 0 to 25% at FAAH [3] and more than 75% on MAGL [4].

For the compound `CS(=O)(=O)Nc1ccn(C(=O)N2CCN(Cc3cc4cc(F)ccc4[nH]3)CC2)n1` [Example 107, N-(1-(4-((5-Fluoro-1H-indol-2-yl)methyl)piperazine-1-carbonyl)-1H-pyrazol-3-yl)methanesulfonamide], the inhibition at 1 µM at FAAH [1] was 0 to 25%; on MAGL [2], more than 75%; on FAAH [3], 0 to 25%; on MAGL [4] it was more than 75%.

Take `CS(=O)(=O)Nc1ccn(C(=O)N2CCC(Oc3ccc(C(F)(F)F)c(N4CCC(F)CC4)c3)CC2)n1` [Example 109, N-(1-(4-(3-(4-Fluoropiperidin-1-yl)-4-(trifluoromethyl)phenoxy)piperidine-1-carbonyl)-1H-pyrazol-3-yl)methanesulfonamide]: the inhibition at 1 µM is 0 to 25% at FAAH [1], more than 75% on MAGL [2], 0 to 25% at FAAH [3] and more than 75% at MAGL [4].

As to `CS(=O)(=O)Nc1ccn(C(=O)N2CCC(Oc3ccc(C(F)(F)F)c(OC4CCCC4)c3)CC2)n1` [Example 110, N-(1-(4-(3-(Cyclopentyloxy)-4-(trifluoromethyl)phenoxy)piperidine-1-carbonyl)-1H-pyrazol-3-yl)methanesulfonamide], the inhibition at 1 µM on FAAH [1] is 0 to 25%; on MAGL [2] it was more than 75%; on FAAH [3], 0 to 25%; at MAGL [4], more than 75%.

In the case of `CS(=O)(=O)Nc1ccn(C(=O)N2CCN(Cc3ccc(Cl)c(OC4CCCC4)c3)CC2)n1` [Example 111, N-(1-(4-(4-Chloro-3-(cyclopentyloxy)benzyl)piperazine-1-carbonyl)-1H-pyrazol-3-yl)methanesulfonamide], the inhibition at 1 µM at FAAH [1] was 0 to 25%; at MAGL [2] it was more than 75%; at FAAH [3], 0 to 25%; at MAGL [4], more than 75%.

As for `CC(=O)Nc1ccn(C(=O)N2CC3CN(Cc4cccc(OC(F)(F)F)c4)CC3C2)n1` (stereo not shown) [Example 113, N-(1-(5-(3-(Trifluoromethoxy)benzyl)octahydropyrrolo[3,4-c]pyrrole-2-carbonyl)-1H-pyrazol-3-yl)acetamide], the inhibition at 1 µM on FAAH [1] is 25 to 50%; on MAGL [2], more than 75%; on FAAH [3] it was more than 75%; on MAGL [4], more than 75%.

In the case of `CS(=O)(=O)Nc1ccn(C(=O)N2CC3CN(Cc4cccc(C(F)(F)F)c4)CC3C2)n1` (stereo not shown) [Example 114, N-(1-(5-(3-(Trifluoromethyl)benzyl)octahydropyrrolo[3,4-c]pyrrole-2-carbonyl)-1H-pyrazol-3-yl)methanesulfonamide], the inhibition at 1 µM at FAAH [1] is 25 to 50%; at MAGL [2] it was more than 75%; at FAAH [3] it was more than 75%; on MAGL [4], 25 to 50%.

In the case of `CS(=O)(=O)Nc1ccn(C(=O)N2CC3CN(Cc4cccc(OC(F)(F)F)c4)CC3C2)n1` (stereo not shown) [Example 115, N-(1-(5-(3-(Trifluoromethoxy)benzyl)octahydropyrrolo[3,4-c]pyrrole-2-carbonyl)-1H-pyrazol-3-yl)methanesulfonamide], the inhibition at 1 µM on FAAH [1] is 25 to 50%; at MAGL [2] it was more than 75%; at FAAH [3], more than 75%; at MAGL [4], 25 to 50%.

In the case of `CS(=O)(=O)Nc1ccn(C(=O)N2CCN(Cc3ccc(C(F)(F)F)c(-c4nnco4)c3)CC2)n1` [Example 116, N-(1-(4-(3-(1,3,4-Oxadiazol-2-yl)-4-(trifluoromethyl)benzyl)piperazine-1-carbonyl)-1H-pyrazol-3-yl)methanesulfonamide], the inhibition at 1 µM on FAAH [1] is 0 to 25%; at MAGL [2] it was more than 75%; at FAAH [3], 0 to 25%; on MAGL [4], 50 to 75%.

Consider `CS(=O)(=O)Nc1ccn(C(=O)N2CCN(Cc3ccc(C(F)(F)F)c(N4CC[C@@H](F)C4)c3)CC2)n1` [Example 120, (R)-N-(1-(4-(3-(3-Fluoropyrrolidin-1-yl)-4-(trifluoromethyl)benzyl)piperazine-1-carbonyl)-1H-pyrazol-3-yl)methanesulfonamide], for which the inhibition at 1 µM at FAAH [1] is 0 to 25%; at MAGL [2], more than 75%; at FAAH [3], 0 to 25%; at MAGL [4] it was more than 75%.

With `CC(=O)Nc1ccn(C(=O)N2CC3CN(Cc4ccc(N5CCCC5)cc4C(F)(F)F)CC3C2)n1` (stereo not shown) [Example 121, N-(1-(5-(4-(Pyrrolidin-1-yl)-2-(trifluoromethyl)benzyl)octahydropyrrolo[3,4-c]pyrrole-2-carbonyl)-1H-pyrazol-3-yl)acetamide], the inhibition at 1 µM at FAAH [1], at MAGL [2], on FAAH [3] and on MAGL [4] was more than 75% in each case. In addition, the figures for the IC50 on FAAH [1] and at MAGL [2] were 0.1 to 1 µM and less than 0.1 µM, respectively.

As to `CS(=O)(=O)Nc1ccn(C(=O)N2CCN(Cc3ccc(Cl)c(N4CC[C@@H](F)C4)c3)CC2)n1` [Example 122, (R)-N-(1-(4-(4-Chloro-3-(3-fluoropyrrolidin-1-yl)benzyl)piperazine-1-carbonyl)-1H-pyrazol-3-yl)methanesulfonamide], the inhibition at 1 µM at FAAH [1] is 0 to 25%; at MAGL [2], more than 75%; at FAAH [3] it was 0 to 25%; at MAGL [4], more than 75%.
